Patent US20100292205A1, “Pyrimidone Compounds As GSK-3 Inhibitors” (PFIZER INC., priority 2006, published 2010)

These compounds were tested against T1, Recombinant human GSK3β (Homo sapiens, UniProt P49841) (assay: GSK-3β (Glycogen Synthase Kinase) cell free enzyme assay). Conditions: 1 μM; Examples 201-221; read-out: Percent inhibition at 1 μM.
T1 construct: His-tag; made in house; host or cells: Sf9 insect cells / baculovirus
Format: biochemical
In short: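 Recombinant human GSK3β, expressed in SF9/baculovirus cells and His-tag purified on Ni-NTA Superflow, was preincubated with test agent for 30 minutes at room temperature. Substrate mix was then added to start the reaction in 8 mM MOPS (pH 7.0), 10 mM magnesium acetate, 0.2 mM EDTA, 1 mM DTT, 2 uM cold ATP, 0.025 uCi/well [33P]ATP (120 uL) and 1.0 uM biotinylated peptide. Reactions ran at RT for 60 min.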

T1 sequence (P49841 whole entry): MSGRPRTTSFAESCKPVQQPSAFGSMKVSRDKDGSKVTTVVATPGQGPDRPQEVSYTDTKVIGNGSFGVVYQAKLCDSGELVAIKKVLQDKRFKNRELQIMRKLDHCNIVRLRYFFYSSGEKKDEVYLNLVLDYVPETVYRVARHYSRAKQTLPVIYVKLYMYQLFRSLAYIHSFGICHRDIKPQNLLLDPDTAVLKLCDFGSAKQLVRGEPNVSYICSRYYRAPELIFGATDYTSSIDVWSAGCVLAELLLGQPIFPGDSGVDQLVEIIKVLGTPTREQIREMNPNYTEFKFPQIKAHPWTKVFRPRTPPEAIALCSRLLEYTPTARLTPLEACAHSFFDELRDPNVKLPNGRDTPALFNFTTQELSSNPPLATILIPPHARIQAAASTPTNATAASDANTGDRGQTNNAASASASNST

| Compound | inhibition at 1 µM [%] |
| --- | --- |
| CCN(c1nc(-c2ccncc2)cc(=O)n1C)C1CCN(C(=O)OC)CC1 [Example 217, Methyl 4-[ethyl(1-methyl-6-oxo-4-pyridin-4-yl-16-dihydropyrimidin-2-yl)amino]piperidine-1-carboxylate] | 84 |
| COC(=O)N1CCC[C@H]1CNc1nc(-c2ccncc2)cc(=O)n1C [Example 218, Methyl (2S)-2-{[(1-methyl-6-oxo-4-pyridin-4-yl-16-dihydropyrimidin-2-yl)amino]methyl}pyrrolidine-1-carboxylate] | 68 |
| COC(=O)N1CC(CNc2nc(-c3ccncc3)cc(=O)n2C)C1 [Example 219, Methyl 3-{[(1-methyl-6-oxo-4-pyridin-4-yl-16-dihydropyrimidin-2-yl)amino]methyl}azetidine-1-carboxylate] | 72 |
| COC(=O)N1CCC[C@@H]1CNc1nc(-c2ccncc2)cc(=O)n1C [Example 220, Methyl (2R)-2-{[(1-methyl-6-oxo-4-pyridin-4-yl-16-dihydropyrimidin-2-yl)amino]methyl}pyrrolidine-1-carboxylate] | 91 |
| COC(=O)N1CCC(CNc2nc(-c3ccncc3)cc(=O)n2C)C1 (stereo not shown) [Example 221, Methyl 3-{[(1-methyl-6-oxo-4-pyridin-4-yl-16-dihydropyrimidin-2-yl)amino]methyl}pyrrolidine-1-carboxylate] | 71 |

Same assay, conditions: 1 μM; Examples 236-262; read-out: Percent inhibition at 1 μM

| Compound | inhibition at 1 µM [%] |
| --- | --- |
| Cn1c(NC2CCN(Cc3ccccc3)C2)nc(-c2ccncc2)cc1=O (stereo not shown) [Example 236, 2-[(1-Benzylpyrrolidin-3-yl)amino]-3-methyl-6-pyridin-4-ylpyrimidin-4(3H)-one] | 63 |
| Cn1c(NC2CCCN(Cc3ccccc3)CC2)nc(-c2ccncc2)cc1=O (stereo not shown) [Example 237, 2-[(1-Benzylazepan-4-yl)amino]-3-methyl-6-pyridin-4-ylpyrimidin-4(3H)-one] | 84 |
| CN1[C@@H]2CC[C@H]1CN(c1nc(-c3ccncc3)cc(=O)n1C)C2 [Example 238, 3-Methyl-2-[(1R,5S)-8-methyl-38-diazabicyclo[3.2.1]oct-3-yl]-6-pyridin-4-ylpyrimidin-4(3H)-one] | 47 |
| CN1C[C@H]2CC[C@@H](C1)N2c1nc(-c2ccncc2)cc(=O)n1C [Example 239, 3-Methyl-2-[(1R,5S)-3-methyl-38-diazabicyclo[3.2.1]oct-8-yl]-6-pyridin-4-ylpyrimidin-4(3H)-one] | 57 |
| CN1CCC(Nc2nc(-c3ccncc3)cc(=O)n2C)C1 (stereo not shown) [Example 240, 3-Methyl-2-[(1-methylpyrrolidin-3-yl)amino]-6-pyridin-4-ylpyrimidin-4(3H)-one] | 49 |
| CN1CCCC(Nc2nc(-c3ccncc3)cc(=O)n2C)CC1 (stereo not shown) [Example 241, 3-Methyl-2-[(1-methylazepan-4-yl)amino]-6-pyridin-4-ylpyrimidin-4(3H)-one] | 72 |
| CN1C[C@H](Nc2nc(-c3ccncc3)cc(=O)n2C)[C@@H](F)C1 [Example 242, 2-{[(3S,4S)-4-Fluoro-1-methylpyrrolidin-3-yl]amino}-3-methyl-6-pyridin-4-ylpyrimidin-4(3H)-one] | 43 |
| CN1CCCC(N(C)c2nc(-c3ccncc3)cc(=O)n2C)CC1 (stereo not shown) [Example 243, 3-Methyl-2-[methyl(1-methylazepan-4-yl)amino]-6-pyridin-4-ylpyrimidin-4(3H)-one] | 60 |
| CCN(c1nc(-c2ccncc2)cc(=O)n1C)C1CCN(C)C1 (stereo not shown) [Example 244, 2-[ethyl(1-Methylpyrrolidin-3-yl)amino]-3-methyl-6-pyridin-4-ylpyrimidin-4(3H)-one] | 60 |
| CN1CCC(N(C)c2nc(-c3ccncc3)cc(=O)n2C)C1 (stereo not shown) [Example 245, 3-Methyl-2-[methyl(1-methylpyrrolidin-3-yl)amino]-6-pyridin-4-ylpyrimidin-4(3H)-one] | 52 |
| CN1C[C@H](F)[C@H](Nc2nc(-c3ccncc3)cc(=O)n2C)C1 [Example 246, 2-{[(3R,4S)-4-Fluoro-1-methylpyrrolidin-3-yl]amino}-3-methyl-6-pyridin-4-ylpyrimidin-4(3H)-one] | 67 |
| CCN(c1nc(-c2ccncc2)cc(=O)n1C)C1CCCN(C)CC1 (stereo not shown) [Example 247, 2-[Ethyl(1-methylazepan-4-yl)amino]-3-methyl-6-pyridin-4-ylpyrimidin-4(3H)-one] | 78 |
| CCN(c1nc(-c2ccncc2)cc(=O)n1C)C1CCN(C)CC1 [Example 248, 2-[Ethyl(1-methylpiperidin-4-yl)amino]-3-methyl-6-pyridin-4-ylpyrimidin-4(3H)-one] | 39 |
| CN1CC(CNc2nc(-c3ccncc3)cc(=O)n2C)C1 [Example 249, 3-Methyl-2-{[(1-methylazetidin-3-yl)methyl]amino}-6-pyridin-4-ylpyrimidin-4(3H)-one] | 33 |
| Cn1c(N2CC[C@@H]3CN(Cc4ccccc4)C[C@@H]32)nc(-c2ccncc2)cc1=O [Example 251, 2-[(3a,R6,aR)-5-Benzylhexahydropyrro-lo[34-b]pyrrol-1(2H)-yl]-3-methyl-6-pyridin-4-ylpyrimidin-4(3H)-one] | 47 |
| Cn1c(NC2CCCCN(Cc3ccccc3)C2)nc(-c2ccncc2)cc1=O (stereo not shown) [Example 252, 2-[(1-Benzylazepan-3-yl)amino]-3-methyl-6-pyridin-4-ylpyrimidin-4(3H)-one] | 74 |
| Cn1c(N[C@@H]2CN(Cc3ccccc3)C[C@@H]2F)nc(-c2ccncc2)cc1=O [Example 253, 2-{[(3R,4S)-1-Benzyl-4-fluoropyrrolidin-3-yl]amino}-3-methyl-6-pyridin-4-ylpyrimidin-4(3H)-one] | 91 |
| CN(c1nc(-c2ccncc2)cc(=O)n1C)[C@H]1CC[C@H]2N(Cc3ccccc3)CC[C@@]2(C)C1 [Example 254, 2-{[(3a,S5,S7,aR)-1-Benzyl-3a-methyloctahydro-1H-indol-5-yl](methyl)amino}-3-methyl-6-pyridin-4-ylpyrimidin-4(3H)-one] | 47 |
| CN(c1nc(-c2ccncc2)cc(=O)n1C)C1CCCN(Cc2ccccc2)CC1 (stereo not shown) [Example 255, 2-[(1-Benzylazepan-4-yl)(methyl)amino]-3-methyl-6-pyridin-4-ylpyrimidin-4(3H)-one] | 76 |

Same assay, conditions: cell free enzyme assay; Examples 222-234

| Compound | IC50 [nM] |
| --- | --- |
| CCOC(=O)N1CCCC(N(C)c2nc(-c3ccncn3)cc(=O)n2C)C1 (stereo not shown) [Example 222, Ethyl 3-[methyl(1-methyl-6-oxo-1,6-dihydro-4,4′-bipyrimidin-2-yl)amino]piperidine-1-carboxylate] | 1.14 |
| COC(=O)N1CCCC(N(C)c2nc(-c3ccncn3)cc(=O)n2C)C1 (stereo not shown) [Example 223, Methyl 3-[methyl(1-methyl-6-oxo-1,6-dihydro-4,4′-bipyrimidin-2-yl)amino]piperidine-1-carboxylate] | 1.04 |
| CCN(C[C@@H]1CCCN1C(=O)OC)c1nc(-c2ccncn2)cc(=O)n1C [Example 224, Methyl (2S)-2-{[ethyl(1-methyl-6-oxo-1,6-dihydro-4,4′-bipyrimidin-2-yl)amino]methyl}pyrrolidine-1-carboxylate] | 1.11 |
| CCOC(=O)N1CCC[C@H]1CN(CC)c1nc(-c2ccncn2)cc(=O)n1C [Example 225, Ethyl (2S)-2-{[ethyl(1-methyl-6-oxo-1,6-dihydro-4,4′-bipyrimidin-2-yl)amino]methyl}pyrrolidine-1-carboxylate] | 0.755 |
| CCN(C[C@H]1CCCN1C(=O)OC)c1nc(-c2ccncn2)cc(=O)n1C [Example 226, Methyl (2R)-2-{[ethyl(1-methyl-6-oxo-1,6-dihydro-4,4′-bipyrimidin-2-yl)amino]methyl}pyrrolidine-1-carboxylate] | 1 |
| CCOC(=O)N1CCC[C@@H]1CN(CC)c1nc(-c2ccncn2)cc(=O)n1C [Example 227, Ethyl (2R)-2-{[ethyl(1-methyl-6-oxo-1,6-dihydro-4,4′-bipyrimidin-2-yl)amino]methyl}pyrrolidine-1-carboxylate] | 0.825 |
| COC(=O)N1CCC[C@@H](Nc2nc(-c3ccncn3)cc(=O)n2C)C1 [Example 228, Methyl (3R)-3-[(1-methyl-6-oxo-1,6-dihydro-4,4′-bipyrimidin-2-yl)amino]piperidine-1-carboxylate] | 0.994 |
| CCOC(=O)N1CCC[C@@H](Nc2nc(-c3ccncn3)cc(=O)n2C)C1 [Example 229, Ethyl (3R)-3-[(1-methyl-6-oxo-1,6-dihydro-4,4′-bipyrimidin-2-yl)amino]piperidine-1-carboxylate] | 1.99 |
| CCOC(=O)N1CCC[C@@H](N(C)c2nc(-c3ccncn3)cc(=O)n2C)C1 [Example 230, Ethyl (3R)-3-[methyl(1-methyl-6-oxo-1,6-dihydro-4,4′-bipyrimidin-2-yl)amino]piperidine-1-carboxylate] | 0.95 |
| CCOC(=O)N1CCC[C@@H](N(C)c2nc(-c3ccncc3)cc(=O)n2C)C1 [Example 231, Ethyl (3R)-3-[methyl(1-methyl-6-oxo-4-pyridin-4-yl-1,6-dihydropyrimidin-2-yl)amino]piperidine-1-carboxylate] | 1.15 |
| COC(=O)N1CCC[C@@H](Nc2nc(-c3ccncc3)cc(=O)n2C)C1 [Example 232, Methyl (3R)-3-[(1-methyl-6-oxo-4-pyridin-4-yl-1,6-dihydropyrimidin-2-yl)amino]piperidine-1-carboxylate] | 0.854 |
| Cn1c(N[C@@H]2CCCN(C(=O)OCc3ccncc3)C2)nc(-c2ccncn2)cc1=O [Example 233, Pyridin-4-ylmethyl (3R)-3-[(1-methyl-6-oxo-1,6-dihydro-4,4′-bipyrimidin-2-yl)amino]piperidine-1-carboxylate] | 5 |
| CN(c1nc(-c2ccncn2)cc(=O)n1C)[C@@H]1CCCN(C(=O)C2CC2)C1 [Example 234, 2-{[(3R)-1-(Cyclopropylcarbonyl)piperi-din-3-yl](methyl)amino}-1-methyl-4,4′-bipyrimidin-6(1H)-one] | 1.68 |
